Experiments:
[1] = tested on: UVB induced skin erythema; details: applied topically in a simple oil-in-water emulsion or as a gel preparation; Int. J. Cos. Sci. 17:91-103, 1995; cited from earlier work
[2] = Depth of glutathione penetration into the skin: tape stripping with DPPH anti-free radical assay
Method: The depth of glutathione penetration into the skin was determined by comparing two different galenic forms: free glutathione in solution (FG) and glutathione encapsulated in a liposome (LG). Since glutathione is a highly reactive free radical scavenger, its presence even in small quantities can be detected by spectroscopic methods.
Gluthione preparations are applied to the skin, and tape strippings are taken after some fixed interval of time. The tape strippings are assayed for anti-free radical activity by DPPH (1,1 Diphenyl-2-picrylhydrazyl) at 8.76 x 10^-3 % (w/v) in methanol) colouration/ discolouration tests (Kim et al. Proc. 17th IFSCC Congress (Yokohama), Vol. 1: 3-14, 1994). […]
On the arms of each volunteer, the 3 test sites were determined in a random way: one site for application of water (negative control), one for application of free glutathione (FG) and one for application of liposome encapsulated glutathione (LG). […]
5 tape strippings were carried out on the control sites after 2µl/cm^2 application of distilled water and a light massage. […] The change in colour was measured on a spectrophotometer at 517nm.
Each test solution was then applied to the designated sites (2µl/cm^2) by slight massaging and left to dry for 30 minutes. […] Colour changes were recorded as described above.

| Compound | inhibiting UVB induced skin erythema [1] | Tape strips containing residual scavenger activity, Mean value ([2]; in vivo) | depth of penetration ([2]; result in words, presence of DPPH reactive substances on successive strips) |
| --- | --- | --- | --- |
| N[C@@H](CCC(=O)N[C@@H](CS)C(=O)NCC(=O)O)C(=O)O [Glutathione] | ineffective |  |  |
| N[C@@H](CCC(=O)N[C@@H](CS)C(=O)NCC(=O)O)C(=O)O [FG, Reduced glutathione] |  | 1.3 | absence of significant penetration |
